The source of these data is US20260151358A1, “METHODS OF TREATING, AMELIORATING, AND/OR PREVENTING STRESS-RELATED DISORDER” (Yale University, priority 2022, published 2026).

One assay deals with dlPFC Delay cells. Briefly: Single unit recording with iontophoresis of dlPFC Delay cells in monkeys performing the ODR working memory task. The settings on record: for delay-related firing of dlPFC Delay cells for the neurons' preferred direction / d′ measure of spatial tuning / delay-related firing for nonpreferred directions: iontophoresis, vs control, ODR task; for effect on the S-Bay (LTCC agonist)-induced reduction of Delay cell firing: pretreatment; for PFC neuronal firing (Delay cell firing): FIGS. 9A-9B, monkeys performing a working memory task. The class given is in vivo, rhesus macaques. The source says:
The physiological contributions of LTCC and β1-AR signaling were examined at the cellular level in rhesus macaques performing the oculomotor delayed response (ODR) spatial working memory task (FIG. 4A) to determine how they influence the neuronal firing needed for working memory and higher cognition. Recordings were made from the caudal principal sulcus (FIG. 4B) using an iontophoretic electrode (FIG. 4C) that allows minute ejection of charged compounds onto the neuron being recorded. The dlPFC contains “Delay cells” that are able to fire across the length of the delay period while the subject is remembering a location (FIG. 4D); this persistent firing is spatially tuned for the neuron's preferred direction, thus representing visual space in working memory. The effects of β1-AR-Cav1.2 signaling on dlPFC “Delay cell” firing were tested using single unit recordings coupled with iontophoresis in adult and aged rhesus monkeys performing the ODR task using repeated measures analyses. Aged monkeys have naturally-occurring calcium dysregulation, and thus are particularly useful for examining agents that reduce calcium signaling. As there are no compounds selective for Cav1.2, these experiments used agents targeting all LTCCs (i.e. Cav1.2 and Cav1.3 in dlPFC).

The next assay deals with rhesus monkeys. As to the kind of experiment: Stress-induced (FG7142) working memory deficits, spatial delayed response task, systemic administration. In kind it is in vivo. The settings on record: for stress-induced working memory (cognitive) deficits: pretreatment, FG7142-treated animals, delayed response task; for effect of the selected dose alone on working memory performance: without stressor; for stress-induced cognitive deficits: monkeys. The source says:
The final experiments examined whether systemic administration of compounds that block β1-AR or LTCCs prevent stress-induced working memory deficits in rhesus monkeys (n=6), as predicted by the physiological data. This experiment used the LTCC blocker, nimodipine, which normalizes dlPFC working memory in human subjects carrying the CACNA1C allele that increases channel expression. The current experiments tested the effects of β1-AR or LTCC blockade on stress-induced working memory deficits in adult monkeys performing the spatial delayed response task in a Wisconsin General Test Apparatus. The anxiogenic inverse benzodiazepine agonist, FG7142, was used as a pharmacological stressor, as it produces a classic stress response including cortisol release in humans and monkeys, yet allows precise dosing to produce a mild response that impairs accuracy without impeding motivation for testing for food rewards. […]; post-hoc comparisons: vehicle+vehicle vs. vehicle+stress, p=0.001; […]; post-hoc comparisons: vehicle+vehicle vs. vehicle+stress, p=0.0009; vehicle+stress vs. nimodipine+stress, p=0.0006).

The next assay has as its system test animals. As to the kind of experiment: Working memory (cognition) after β1-AR or β2-AR blockade (FIG. 11). In kind it is in vivo.
The target of assay [1] is β3-adrenergic receptor subtype (β3-AR) (Homo sapiens, UniProt P13945). Conditions: cited from earlier work.
The test system of another assay is dlPFC function. The settings on record: published data, Li et al. 1994; cited from earlier work.

Molecules are shown by their SMILES. Entries after “also recorded” stand apart in the source; their conditions may differ.

Sequence of β3-adrenergic receptor subtype (β3-AR) (P13945 whole entry): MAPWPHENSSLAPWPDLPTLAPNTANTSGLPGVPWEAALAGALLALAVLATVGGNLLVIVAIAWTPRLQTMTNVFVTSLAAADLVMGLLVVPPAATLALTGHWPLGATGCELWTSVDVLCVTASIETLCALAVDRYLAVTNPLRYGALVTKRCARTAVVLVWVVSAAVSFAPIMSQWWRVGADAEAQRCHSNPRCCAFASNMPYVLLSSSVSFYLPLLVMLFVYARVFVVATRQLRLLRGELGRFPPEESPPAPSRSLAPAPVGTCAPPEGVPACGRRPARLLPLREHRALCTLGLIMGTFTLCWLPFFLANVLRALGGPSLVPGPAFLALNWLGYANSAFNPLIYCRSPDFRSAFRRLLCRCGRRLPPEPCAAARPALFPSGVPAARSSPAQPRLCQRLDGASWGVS

On to `COC(=O)C1=C(C)NC(C)=C([N+](=O)[O-])[C@H]1c1ccccc1C(F)(F)F` [(S)-(−)-Bay-K 8644, (−)-methyl 2,6-dimethyl-5-nitro-4 (S)-[2-(trifluoromethyl)phenyl]-1,4-dihydropyridine-3-carboxylate], for which, in the assay with dlPFC Delay cells, the “delay-related firing of dlPFC Delay cells for the neurons' preferred direction” value is reported as “reduced delay-related firing” and the “d′ measure of spatial tuning” value is recorded as “decreased”.
`c1ccc2c(c1)CCC[C@H]2Nc1nc2ccccc2[nH]1` [NS8593, N-[(1R)-1,2,3,4-tetrahydro-1-naphthalenyl]-1H-benzimidazol-2-amine]: in the assay with dlPFC Delay cells, the “delay-related firing for nonpreferred directions” value is listed as “smaller increase”, the “delay-related firing of dlPFC Delay cells for the neurons' preferred direction” value is reported as “significantly increased delay firing”, the “d′ measure of spatial tuning” value was “significant increase” and the “effect on the S-Bay (LTCC agonist)-induced reduction of Delay cell firing” value is on record as “blocked”.
With `CNC(=O)c1cc2c(cn1)[nH]c1ccccc12` [FG7142], the “working memory performance compared to vehicle+vehicle control” value with rhesus monkeys (vehicle pretreatment + pharmacological stressor, n=6) was “significantly impaired performance”.
Regarding `Cc1ccc(OCC(O)C(C)NC(C)C)c2c1CCC2` (centres unmarked) [IC1118551, 3-(isopropylamino)-1-[(7-methyl-4-indanyl)oxy]butan-2-ol], the “cognition (working memory)” value with test animals (0.1 mg/kg, FIG. 11, n=1) was “impaired cognition”.
Turning to `CC(C)NCC(O)COc1ccc(CCOCC2CC2)cc1` (centres unmarked) [betaxolol, 1-{4-[2-(cyclopropylmethoxy)ethyl]phenoxy}-3-(propan-2-ylamino)propan-2-ol], in assay [1], the “pKD value for β3-AR” value is listed as 5.97±0.08. In the assay with rhesus monkeys, the “stress-induced working memory (cognitive) deficits” value (“stress-induced working memory” below) is listed as “prevented working memory deficits; also recorded: blocked stress-induced cognitive deficits” and the “effect of the selected dose alone on working memory performance” value is “no effect on their own”. Moreover, in the assay on dlPFC Delay cells, the “delay-related firing of dlPFC Delay cells for the neurons' preferred direction” value is recorded as “enhanced delay-related firing” and the “d′ measure of spatial tuning” value was “increased”.
Regarding `O=C(NCCNCC(O)COc1ccc(O)cc1)N1CCOCC1` (racemic) [xamoterol, (RS)—N-(2-{[2-hydroxy-3-(4-hydroxyphenoxy)propyl]amino}ethyl)morpholine-4-carboxamide], in the assay on dlPFC Delay cells, the “PFC neuronal firing (Delay cell firing)” value is “reduces PFC neuronal firing”, the “delay-related firing for nonpreferred directions” value is given as “not for nonpreferred directions”, the “delay-related firing of dlPFC Delay cells for the neurons' preferred direction” value is listed as “reduced delay-related firing” and the “d′ measure of spatial tuning” value is listed as “significant reduction”.
Take `COCCOC(=O)C1=C(C)NC(C)=C(C(=O)OC(C)C)C1c1cccc([N+](=O)[O-])c1` (centres unmarked) [nimodipine, 3-(2-methoxyethyl) 5-propan-2-yl 2,6-dimethyl-4-(3-nitrophenyl)-1,4-dihydropyridine-3,5-dicarboxylate]: in the assay on rhesus monkeys, the “stress-induced working memory” value is given as “prevented working memory deficits” and the “effect of the selected dose alone on working memory performance” value is reported as “no effect on their own”.
Consider `OC(CNCC(O)C1CCc2cc(F)ccc2O1)C1CCc2cc(F)ccc2O1` (centres unmarked) [nebivolol, 1-(6-fluoro-3,4-dihydro-2H-chromen-2-yl)-2-[[2-(6-fluoro-3,4-dihydro-2H-chromen-2-yl)-2-hydroxyethyl]amino]ethanol], for which the “cognition (working memory)” value in the assay with test animals (1.0 mg/kg, FIG. 11) is “improved cognition”. The stress-induced cognitive deficits result in the assay on rhesus monkeys (0.01 mg/kg, FIG. 10B) is on record as “blocked stress-induced cognitive deficits”; in the assay on rhesus monkeys (0.1 mg/kg, FIG. 10A), “blocked stress-induced cognitive deficits”. Moreover, the “stress-induced working memory” value in the assay on rhesus monkeys is reported as “prevented stress-induced cognitive deficits”.
In the case of `CCN(c1ccccc1)c1cc(NC)[n+](C)c(C)n1` [ZD7288, N-ethyl-1,6-dihydro-1,2-dimethyl-6-(methylimino)-N-phenyl-4-pyrimidinamine], in the assay with dlPFC Delay cells, the “effect on the S-Bay (LTCC agonist)-induced reduction of Delay cell firing” value is reported as “blocked”.
For `CC[C@H](NC(C)C)[C@H](O)c1ccc(O)c2[nH]c(=O)ccc12` (relative stereo) [procaterol, (±)-(1R,2S)-rel-8-hydroxy-5-[1-hydroxy-2-(isopropylamino)butyl]-quinolin-2 (1H)-one], in the assay with dlPFC Delay cells, the “PFC neuronal firing (Delay cell firing)” value is listed as “increases delay cell firing”.
Regarding `CC(C)NCC(O)COc1cccc2ccccc12` (racemic) [propranolol, (RS)-1-(1-methylethylamino)-3-(1-naphthyloxy)propan-2-ol], the “effect on dlPFC function” value in the assay on dlPFC function is given as “little effect”.
